{"source": "patent US20250382344A1", "about": "“Soluble GLP1/GIP/NPY2 Receptor Triple Agonists” (Boehringer Ingelheim International GmH, priority 2024, published 2025)", "key": {"[1]": {"target": "T1, hGIPR (Homo sapiens, UniProt P48546)", "T1 construct": "expressed in transfected cells; host or cells: CHO CRE-luciferase reporter cells", "T1 sequence (P48546 22-466)": "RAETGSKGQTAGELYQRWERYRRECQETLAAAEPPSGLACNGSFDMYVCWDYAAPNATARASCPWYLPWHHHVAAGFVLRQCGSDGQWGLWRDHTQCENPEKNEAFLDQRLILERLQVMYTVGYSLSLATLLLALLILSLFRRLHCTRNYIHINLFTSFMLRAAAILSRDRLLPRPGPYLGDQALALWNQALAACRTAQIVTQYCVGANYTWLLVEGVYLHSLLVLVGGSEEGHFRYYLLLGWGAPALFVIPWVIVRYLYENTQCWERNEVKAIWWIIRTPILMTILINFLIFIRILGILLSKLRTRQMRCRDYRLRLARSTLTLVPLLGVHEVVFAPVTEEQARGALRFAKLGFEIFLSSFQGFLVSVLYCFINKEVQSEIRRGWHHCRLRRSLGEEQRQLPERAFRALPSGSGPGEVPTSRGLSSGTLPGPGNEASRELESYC", "test": "hGIPR CreLuc assay in 0.5% and 100% plasma (CHO CRE-luciferase reporter cells)", "format": "cell-based", "excerpt": "CHO and HEK-293 recombinant cell lines express a luciferase reporter gene under control of the CAMP responsive element (CRE). As a second recombinant protein the GLP-1 and NPY2 receptors were expressed in the reporter gene HEK cells, and the GIP receptor was expressed in the reporter gene CHO cells, respectively. Stimulation of these recombinant cells with an agonist leads to an increase of intracellular CAMP levels. In the presence of CAMP, the transcription factor CRE binding protein (CREB) binds to the CRE and to the CREB binding protein (CBP), which leads to transcription of the luciferase reporter gene. Peptides upon serial-dilution in 100% DMSO were transferred into 384-well assay plates with 5 μl pre-dispensed assay buffer (1×HBSS, 20 mM HEPES, pH7.4 supplemented with 0.5% human plasma) using acoustic dispensing on a Labcyte ECHO. Cryo-preserved transgenic reporter gene cells were thawed in assay buffer. 20 μl (10.000 cells/well) were added to the plate with the peptides and incubated for 4 hours at 37° C. in a humidified incubator. Following incubation, assay plates are equilibrated to room temperature, followed by addition of 25 μl of Bright-Glo™ Luciferase reagent, incubation at room temperature for 10 minutes and analysis of luminescence (Envision Reader). […] EC50 values were calculated by non-linear regression using sigmoid concentration-response with variable slope.\nThe same assays were run in the presence of 100% plasma with no additional buffer constituents."}, "[2]": {"test": "Solubility in 0.1 M phosphate buffer at pH 7", "format": "physicochemical", "conditions": "0.1 M phosphate buffer at pH 7, 10 mg/mL final peptide concentration, shaking 2 hours at room temperature, peptides as TFA-salts; measured sample pH 6.5-7.0"}}, "note": "Like-named read-outs stand apart in the source and are kept apart here. Where a SMILES comes first, the peptide text is derived from it. Side-chain parts run from the residue outwards. [ ]: non-standard residue; d: D form. The star is where a group is joined. ξ: configuration not given here. C18 diacid = O=C(O)CCCCCCCCCCCCCCCCC(=O)*; NMeY = CN[C@@H](Cc1ccc(O)cc1)C(=O)O; Palmitoyl = CCCCCCCCCCCCCCCC(=O)*; αMeF = C[C@](N)(Cc1ccccc1)C(=O)O; ξIva = CCC(C)(N)C(=O)O; Aib = CC(C)(N)C(=O)O", "data": [{"smiles": "CC[C@H](C)[C@H](NC(=O)[C@H](CC(C)C)NC(=O)[C@H](Cc1c[nH]cn1)NC(=O)[C@H](CCCNC(=N)N)NC(=O)[C@@H](NC(=O)[C@H](Cc1ccccc1)NC(=O)[C@H](C)NC(=O)C(C)(C)NC(=O)[C@H](CCC(N)=O)NC(=O)[C@H](C)NC(=O)[C@H](CCC(N)=O)NC(=O)[C@H](CCCCN)NC(=O)[C@H](CCC(=O)O)NC(=O)[C@H](CC(C)C)NC(=O)C(C)(C)NC(=O)[C@@H](NC(=O)[C@H](CO)NC(=O)[C@H](CC(C)C)NC(=O)[C@H](CC(=O)O)NC(=O)[C@H](CO)NC(=O)[C@@H](NC(=O)[C@H](Cc1ccccc1)NC(=O)[C@@H](NC(=O)CNC(=O)[C@H](CCC(=O)O)NC(=O)C(C)(C)NC(=O)[C@@H](N)Cc1ccc(O)cc1)[C@@H](C)O)[C@@H](C)O)[C@@H](C)CC)C(C)C)C(=O)N[C@@H](CC(N)=O)C(=O)N[C@@H](CCCCNC(=O)CCCCCNC(=O)CCCCCNC(=O)CC[C@H](NC(=O)CC[C@H](NC(=O)CC[C@H](NC(=O)CC[C@H](NC(=O)CC[C@H](NC(=O)CCCCCCCCCCCCCCCCCCC(=O)O)C(=O)O)C(=O)O)C(=O)O)C(=O)O)C(=O)O)C(=O)NC(C)(C)C(=O)N[C@H](C(=O)N[C@@H](CCCNC(=N)N)C(=O)N[C@@H](CCC(N)=O)C(=O)N[C@@H](CCCNC(=N)N)C(=O)N[C@@H](Cc1ccc(O)cc1)C(N)=O)[C@@H](C)O", "note": "[Compound 1, Y-Aib-E-G-T-F-T-S-D-L-S-I-Aib-L-E-K-Q-A-Q-Aib-A-F-V-R-H-L-I-N-K(1,3)-Aib-T-R-Q-R-Y-NH2.C20DA-gGlu-gGlu-gGlu-gGlu-gGlu-AHX-AHX(1,2)]", "values": [{"measurement": "EC50", "setting": "[1]; hGIPR 0.5% hP (nM), 0.5% human plasma", "value": 0.2, "unit": "nM"}, {"measurement": "EC50", "setting": "[1]; hGIPR 100% hP (nM), 100% human plasma", "value": 10.3, "unit": "nM"}, {"measurement": "solubility at 2 h", "setting": "[2]", "value": 9800, "unit": "µg/mL"}]}, {"smiles": "CC[C@H](C)[C@H](NC(=O)[C@H](CC(C)C)NC(=O)[C@H](Cc1c[nH]cn1)NC(=O)[C@H](CCCNC(=N)N)NC(=O)[C@@H](NC(=O)[C@H](Cc1ccccc1)NC(=O)[C@H](C)NC(=O)C(C)(C)NC(=O)[C@H](CCC(N)=O)NC(=O)[C@H](C)NC(=O)[C@H](C)NC(=O)[C@H](CCCCN)NC(=O)[C@H](CCC(=O)O)NC(=O)[C@H](CC(C)C)NC(=O)C(C)(C)NC(=O)[C@@H](NC(=O)[C@H](CO)NC(=O)[C@H](Cc1ccc(O)cc1)NC(=O)[C@H](CC(=O)O)NC(=O)[C@H](CO)NC(=O)[C@@H](NC(=O)[C@H](Cc1ccccc1)NC(=O)[C@@H](NC(=O)CNC(=O)[C@H](CCC(=O)O)NC(=O)C(C)(C)NC(=O)[C@@H](N)Cc1ccc(O)cc1)[C@@H](C)O)[C@@H](C)O)[C@@H](C)CC)C(C)C)C(=O)N[C@@H](CC(N)=O)C(=O)N[C@@H](CCCCNC(=O)[C@@H](N)CCCCNC(=O)CC[C@H](NC(=O)CC[C@H](NC(=O)CC[C@H](NC(=O)CC[C@H](NC(=O)CC[C@H](NC(=O)CC[C@H](NC(=O)CCCCCCCCCCCCCCCCCCC(=O)O)C(=O)O)C(=O)O)C(=O)O)C(=O)O)C(=O)O)C(=O)O)C(=O)NC(C)(C)C(=O)N[C@H](C(=O)N[C@@H](CCCNC(=N)N)C(=O)N[C@@H](CCC(N)=O)C(=O)N[C@@H](CCCNC(=N)N)C(=O)N[C@@H](Cc1ccc(O)cc1)C(N)=O)[C@@H](C)O", "note": "[Compound 4, Y-Aib-E-G-T-F-T-S-D-Y-S-I-Aib-L-E-K-A-A-Q-Aib-A-F-V-R-H-L-I-N-K(1,3)-Aib-T-R-Q-R-Y-NH2.C20DA-gGlu-gGlu-gGlu-gGlu-gGlu-gGlu-eLys(1,2)]", "values": [{"measurement": "EC50", "setting": "[1]; 0.5% human plasma, read-out: hGIPR 0.5% hP", "value": 0.3, "unit": "nM"}, {"measurement": "EC50", "setting": "[1]; 100% human plasma, read-out: hGIPR 100% hP", "value": 11.5, "unit": "nM"}, {"measurement": "solubility at 2 h", "setting": "[2]", "value": 10000, "unit": "µg/mL"}]}, {"smiles": "CC[C@H](C)[C@H](NC(=O)[C@H](C)NC(=O)[C@H](Cc1c[nH]cn1)NC(=O)[C@H](CCCNC(=N)N)NC(=O)[C@@H](NC(=O)[C@H](Cc1ccccc1)NC(=O)[C@H](C)NC(=O)C(C)(C)NC(=O)[C@H](CCC(N)=O)NC(=O)[C@H](C)NC(=O)[C@H](CCC(N)=O)NC(=O)[C@H](CCCCN)NC(=O)[C@H](CCC(=O)O)NC(=O)[C@H](CC(C)C)NC(=O)C(C)(C)NC(=O)[C@@H](NC(=O)[C@H](CO)NC(=O)[C@H](Cc1ccc(O)cc1)NC(=O)[C@H](CC(=O)O)NC(=O)[C@H](CO)NC(=O)[C@@H](NC(=O)[C@H](Cc1ccccc1)NC(=O)[C@@H](NC(=O)CNC(=O)[C@H](CCC(=O)O)NC(=O)C(C)(C)NC(=O)[C@@H](N)Cc1ccc(O)cc1)[C@@H](C)O)[C@@H](C)O)[C@@H](C)CC)C(C)C)C(=O)N[C@@H](CC(N)=O)C(=O)N[C@@H](CCCCNC(=O)[C@@H](N)CCCCNC(=O)CC[C@H](NC(=O)CC[C@H](NC(=O)CC[C@H](NC(=O)CC[C@H](NC(=O)CC[C@H](NC(=O)CC[C@H](NC(=O)CCCCCCCCCCCCCCCCC(=O)O)C(=O)O)C(=O)O)C(=O)O)C(=O)O)C(=O)O)C(=O)O)C(=O)NC(C)(C)C(=O)N[C@H](C(=O)N[C@@H](CCCNC(=N)N)C(=O)N[C@@H](CCC(N)=O)C(=O)N[C@@H](CCCNC(=N)N)C(=O)N[C@@H](Cc1ccc(O)cc1)C(N)=O)[C@@H](C)O", "note": "[Compound 139, Y-Aib-E-G-T-F-T-S-D-Y-S-I-Aib-L-E-K-Q-A-Q-Aib-A-F-V-R-H-A-I-N-K(1,3)-Aib-T-R-Q-R-Y-NH2.C18DA-gGlu-gGlu-gGlu-gGlu-gGlu-gGlu-eLys(1,2)]", "values": [{"measurement": "solubility at 2 h", "setting": "[2]", "value": 9000, "unit": "µg/mL"}]}, {"smiles": "CCCCCCCCCCCCCCCC(=O)NCC(=O)NCC(=O)NCC(=O)NCC(=O)NCCCC[C@H](NC(=O)[C@H](CC(=O)O)NC(=O)[C@H](CO)NC(=O)[C@@H](NC(=O)[C@](C)(Cc1ccccc1)NC(=O)[C@@H](NC(=O)CNC(=O)[C@H](CCC(=O)O)NC(=O)C(C)(C)NC(=O)[C@H](Cc1ccc(O)cc1)NC)[C@@H](C)O)[C@@H](C)O)C(=O)N[C@@H](CO)C(=O)N[C@H](C(=O)NC(C)(C)C(=O)N[C@@H](CC(C)C)C(=O)N[C@@H](CCC(=O)O)C(=O)N[C@@H](CCCCN)C(=O)N[C@@H](CCC(N)=O)C(=O)N[C@@H](CCCNC(=N)N)C(=O)N[C@@H](CCC(N)=O)C(=O)NC(C)(CC)C(=O)N[C@@H](CCC(=O)O)C(=O)N[C@@H](Cc1ccccc1)C(=O)N[C@H](C(=O)N[C@@H](CCCNC(=N)N)C(=O)N[C@@H](Cc1c[nH]cn1)C(=O)N[C@@H](CC(C)C)C(=O)N[C@@H](CC(C)C)C(=O)N[C@@H](CC(N)=O)C(=O)N[C@@H](CCCCN)C(=O)NC(C)(C)C(=O)N[C@H](C(=O)N[C@@H](CCCNC(=N)N)C(=O)N[C@@H](CCC(N)=O)C(=O)N[C@@H](CCCNC(=N)N)C(=O)N[C@@H](Cc1ccc(O)cc1)C(N)=O)[C@@H](C)O)C(C)C)[C@@H](C)CC", "note": "(stereo partly drawn) [Ref. 1, NMeY-Aib-E-G-T-aMeF-T-S-D-K(1,3)-S-I-Aib-L-E-K-Q-R-Q-Iva-E-F-V-R-H-L-L-N-K-Aib-T-R-Q-R-Y-NH2.C16A-G-G-G-G(1,2), reference compound] (H-[NMeY][Aib]EGT[αMeF]TSDK([Gly-Gly-Gly-Gly-Palmitoyl])SI[Aib]LEKQRQ[ξIva]EFVRHLLNK[Aib]TRQRY-NH2)", "values": [{"measurement": "solubility", "setting": "[2]", "value": "<1000", "unit": "µg/mL"}, {"measurement": "solubility at 2 h", "setting": "[2]", "value": "< 1000", "unit": "µg/mL"}]}, {"smiles": "CC[C@H](C)[C@H](NC(=O)[C@H](CO)NC(=O)[C@H](CCCCNC(=O)CNC(=O)CNC(=O)CNC(=O)CNC(=O)CCCCCCCCCCCCCCCCC(=O)O)NC(=O)[C@H](CC(=O)O)NC(=O)[C@H](CO)NC(=O)[C@@H](NC(=O)[C@](C)(Cc1ccccc1)NC(=O)[C@@H](NC(=O)CNC(=O)[C@H](CCC(=O)O)NC(=O)C(C)(C)NC(=O)[C@@H](N)Cc1ccc(O)cc1)[C@@H](C)O)[C@@H](C)O)C(=O)NC(C)(C)C(=O)N[C@@H](CC(C)C)C(=O)N[C@@H](CCC(=O)O)C(=O)N[C@@H](CCCCN)C(=O)N[C@@H](CCC(N)=O)C(=O)N[C@@H](CCCNC(=N)N)C(=O)N[C@@H](CCC(N)=O)C(=O)NC(C)(CC)C(=O)N[C@@H](CCC(=O)O)C(=O)N[C@@H](Cc1ccccc1)C(=O)N[C@H](C(=O)N[C@@H](CCCNC(=N)N)C(=O)N[C@@H](Cc1c[nH]cn1)C(=O)N[C@@H](CC(C)C)C(=O)N[C@@H](CC(C)C)C(=O)N[C@@H](CC(N)=O)C(=O)N[C@@H](CCCCN)C(=O)NC(C)(C)C(=O)N[C@H](C(=O)N[C@@H](CCCNC(=N)N)C(=O)N[C@@H](CCC(N)=O)C(=O)N[C@@H](CCCNC(=N)N)C(=O)N[C@@H](Cc1ccc(O)cc1)C(N)=O)[C@@H](C)O)C(C)C", "note": "(stereo partly drawn) [Ref. 3, Y-Aib-E-G-T-aMeF-T-S-D-K(1,3)-S-I-Aib-L-E-K-Q-R-Q-Iva-E-F-V-R-H-L-L-N-K-Aib-T-R-Q-R-Y-NH2.C18DA-G-G-G-G(1,2), reference compound] (H-Y[Aib]EGT[αMeF]TSDK([Gly-Gly-Gly-Gly-C18 diacid])SI[Aib]LEKQRQ[ξIva]EFVRHLLNK[Aib]TRQRY-NH2)", "values": [{"measurement": "solubility", "setting": "[2]", "value": "<1000", "unit": "µg/mL"}, {"measurement": "solubility at 2 h", "setting": "[2]", "value": "< 1000", "unit": "µg/mL"}]}]}
